Measurements taken from the supplement of paper PMC11208160.

Experiment: recombinant UMI read abundance after kanamycin selection (control-corrected) (log10(CPM+1)); higher = more efficient recombination; extreme values may be limits of the assay; sequences stand for … in AGTGCAGAGAAAATCGGCCAGTTTTCTCTGCCTGCAGTCCGCATGCCGTGGGACCCCTTGGGTTCTAACCTGTTGCCTAGATTTATGCAGCGGACTGCCTTTCTCCCAAAGTGATAAACCGG…AGGTTGGTTTCACT; site = the 11-nt donor
Summary of the method: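 For the IS621 bridge recombinase, a pooled Escherichia coli screen tested donor and donor-binding-loop pairs. Cells received the pair library together with a target plasmid encoding a fixed target and T7-inducible recombinase, then went onto IPTG (0.07 mM) plus kanamycin or unselected plates in duplicate. After PCR across the donor–target junction and sequencing, recombinant UMI counts were normalized to CPM, averaged, and scaled by control-derived factors. Each value is given as log10(CPM+1).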
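Further: IS621 bridge recombinase in Escherichia coli cells against a fixed T5 target plasmid.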

With “ATGGGCCCATGGACCGGTTTTCCCGGTAATCCGTATTTGTC (site ATGGGCCCTGA)” as the sequence, how does the “recombinant UMI read abundance (log10)” value read?
The value was 0.504.

With “ATGGTCGCATGGACCGGTTTTCCCGGTAATCCGTATTTGTT (site ATGGTCGCTAA)” as the sequence, how does the “recombinant UMI read abundance (log10)” value read?
Its value is 1.29.

With “ATGGTGTCATGGACCGGTTTTCCCGGTAATCCGTATTTGCT (site ATGGTGTCTAG)” as the sequence, how does the “recombinant UMI read abundance (log10)” value read?
The value was 3.4.

Which “recombinant UMI read abundance (log10)” value does the source give for “ATGTAGGCATGGACCGGTTTTCCCGGTAATCCGTATTTGGA (site ATGTAGGCTAC)” here?
The value was 0.451.

Which “recombinant UMI read abundance (log10)” value does the source give for “ATGTAGGCATGGACCGGTTTTCCCGGTAATCCGTATTTGGA (site ATGTAGGCTCC)” here?
Its value is 0.209.

For “ATGTAGGCATGGACCGGTTTTCCCGGTAATCCGTATTTGGA (site ATGTAGGCTGC)”, which “recombinant UMI read abundance (log10)” value is on record?
Its value is 1.58.

Which “recombinant UMI read abundance (log10)” value does the source give for “ATGTAGGCATGGACCGGTTTTCCCGGTAATCCGTATTTGGA (site ATGTAGGCTTC)” here?
Its value is 1.

With “ATGTATACATGGACCGGTTTTCCCGGTAATCCGTATTTGAC (site ATATATACTGT)” as the sequence, how does the “recombinant UMI read abundance (log10)” value read?
The value was 2.59.

For “ATGTATACATGGACCGGTTTTCCCGGTAATCCGTATTTGAC (site ATCTATACTGT)”, which “recombinant UMI read abundance (log10)” value is on record?
The value was 0.457.

With “ATGTATACATGGACCGGTTTTCCCGGTAATCCGTATTTGAC (site ATGTATACTGT)” as the sequence, how does the “recombinant UMI read abundance (log10)” value read?
The value was 3.18.

For “ATGTATACATGGACCGGTTTTCCCGGTAATCCGTATTTGAC (site ATTTATACTGT)”, which “recombinant UMI read abundance (log10)” value is on record?
Its value is 0.661.

Which “recombinant UMI read abundance (log10)” value does the source give for “ATGTCCGCATGGACCGGTTTTCCCGGTAATCCGTATTTGCC (site ATGTCCGCTGG)” here?
The value was 2.45.

For “ATGTGGGCATGGACCGGTTTTCCCGGTAATCCGTATTTGTA (site ATGTGGGCTTA)”, which “recombinant UMI read abundance (log10)” value is on record?
The value was 2.32.

With “ATGTTGGCATGGACCGGTTTTCCCGGTAATCCGTATTTGGC (site ATGTAGGCTGC)” as the sequence, how does the “recombinant UMI read abundance (log10)” value read?
The value was 1.71.

Which “recombinant UMI read abundance (log10)” value does the source give for “ATGTTGGCATGGACCGGTTTTCCCGGTAATCCGTATTTGGC (site ATGTCGGCTGC)” here?
The value was 0.939.

With “ATGTTGGCATGGACCGGTTTTCCCGGTAATCCGTATTTGGC (site ATGTGGGCTGC)” as the sequence, how does the “recombinant UMI read abundance (log10)” value read?
The value was 0.332.

With “ATGTTGGCATGGACCGGTTTTCCCGGTAATCCGTATTTGGC (site ATGTTGGCTGC)” as the sequence, how does the “recombinant UMI read abundance (log10)” value read?
The value was 2.68.

Which “recombinant UMI read abundance (log10)” value does the source give for “ATTAAGACATGGACCGGTTTTCCCGGTAATCCGTATTTGAA (site ATTAAGACTTT)” here?
The value was 1.43.

Which “recombinant UMI read abundance (log10)” value does the source give for “ATTACGACATGGACCGGTTTTCCCGGTAATCCGTATTTGGG (site ATTACGACTCC)” here?
Its value is 0.00852.

Which “recombinant UMI read abundance (log10)” value does the source give for “ATTATTACATGGACCGGTTTTCCCGGTAATCCGTATTTGCA (site ATTATTACTTG)” here?
Its value is 1.8.

Which “recombinant UMI read abundance (log10)” value does the source give for “ATTCATGCATGGACCGGTTTTCCCGGTAATCCGTATTTGGT (site ATTCATGCTAC)” here?
The value was 0.729.

For “ATTCCATCATGGACCGGTTTTCCCGGTAATCCGTATTTGGA (site ATTCCATCTTC)”, which “recombinant UMI read abundance (log10)” value is on record?
The value was 0.345.

Which “recombinant UMI read abundance (log10)” value does the source give for “ATTCGTCCATGGACCGGTTTTCCCGGTAATCCGTATTTGGT (site ATTCGTCCTAC)” here?
The value was 0.0259.

For “ATTGACACATGGACCGGTTTTCCCGGTAATCCGTATTTGGT (site ATTGAAACTAC)”, which “recombinant UMI read abundance (log10)” value is on record?
The value was 0.168.

Which “recombinant UMI read abundance (log10)” value does the source give for “ATTGACACATGGACCGGTTTTCCCGGTAATCCGTATTTGGT (site ATTGACACTAC)” here?
Its value is 0.911.

Which “recombinant UMI read abundance (log10)” value does the source give for “ATTGACACATGGACCGGTTTTCCCGGTAATCCGTATTTGGT (site ATTGAGACTAC)” here?
The value was 0.811.

Which “recombinant UMI read abundance (log10)” value does the source give for “ATTGACACATGGACCGGTTTTCCCGGTAATCCGTATTTGGT (site ATTGATACTAC)” here?
The value was 0.459.

With “ATTGAGACATGGACCGGTTTTCCCGGTAATCCGTATTTGCT (site ATTGAGACTAA)” as the sequence, how does the “recombinant UMI read abundance (log10)” value read?
Its value is 0.627.

For “ATTGAGACATGGACCGGTTTTCCCGGTAATCCGTATTTGCT (site ATTGAGACTAC)”, which “recombinant UMI read abundance (log10)” value is on record?
The value was 0.379.

For “ATTGAGACATGGACCGGTTTTCCCGGTAATCCGTATTTGCT (site ATTGAGACTAG)”, which “recombinant UMI read abundance (log10)” value is on record?
The value was 2.42.

With “ATTGAGACATGGACCGGTTTTCCCGGTAATCCGTATTTGCT (site ATTGAGACTAT)” as the sequence, how does the “recombinant UMI read abundance (log10)” value read?
Its value is 0.827.

With “ATTGAGACATGGACCGGTTTTCCCGGTAATCCGTATTTGGC (site ATTGAGACTAC)” as the sequence, how does the “recombinant UMI read abundance (log10)” value read?
The value was 0.0133.
